Starred links: 1 amine or outer side, 2 acyl side, 3 side chain; linkers in the order of their positions; H or OH if unused. Non-standard residues stand in square brackets, D forms with d. Residues, ends and D or L forms follow the SMILES beside them. *: point of attachment. X1 = NC(=O)C[C@@H](C(=O)[*:2])N(C[C@@H](N)Cc1ccc(O)cc1)[*:1]; Diphenylacetyl = O=C(C(c1ccccc1)c1ccccc1)*; Arg(Me) = CNC(=N)NCCC[C@H](N)C(=O)O; X2 = O=C(Cc1c[nH]c2ccccc12)*; azaGly = NNC(=O)O
How the values were obtained:
Type in all cases: cell-based
hOT7T175 [1] = molecular target: T1, hOT7T175 (Homo sapiens, UniProt Q969F8, L364H); assay: Intracellular Ca ion level-increasing activity using FLIPR (180 seconds; specific activity to Metastin (1-54)); conditions: hOT7T175/CHO, relative to Metastin (1-54) = 1
T1 construct: expressed in transfected cells

hOT7T175 [2] = molecular target: T2, hOT7T175 (Homo sapiens, UniProt Q969F8); assay: as above; conditions: hOT7T175/CHO, change in intracellular calcium ion level for 180 seconds, Tables 21-23
T2 construct: expressed in transfected cells

hOT7T175 [3] = molecular target: T1, hOT7T175; conditions: hOT7T175/CHO, FLIPR, evaluation for 40 seconds after initiation of the reaction
Protocol: The intracellular Ca ion level-increasing activity was measured using FLIPR as in TEST EXAMPLE 2.

T1 sequence (Q969F8 whole entry L364H): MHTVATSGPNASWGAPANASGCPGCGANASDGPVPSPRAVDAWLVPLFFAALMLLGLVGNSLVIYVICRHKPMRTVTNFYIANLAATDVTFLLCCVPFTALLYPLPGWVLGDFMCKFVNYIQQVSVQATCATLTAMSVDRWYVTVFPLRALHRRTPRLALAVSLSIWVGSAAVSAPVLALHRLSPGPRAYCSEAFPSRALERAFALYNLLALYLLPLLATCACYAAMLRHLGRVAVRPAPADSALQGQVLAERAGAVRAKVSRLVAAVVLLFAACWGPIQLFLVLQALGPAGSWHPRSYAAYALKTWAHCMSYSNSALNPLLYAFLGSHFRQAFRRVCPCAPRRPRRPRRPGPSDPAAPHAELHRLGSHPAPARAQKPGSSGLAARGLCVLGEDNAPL
T2 sequence (Q969F8 whole entry L364H): as above

| Molecule | Specific Act. (intracellular Ca ion level-increasing activity, specific activity to Metastin (1-54)) (hOT7T175 [1]) | intracellular Ca ion level-increasing activity [specific activity to Metastin (1-54)] (hOT7T175 [2]) | Specific Act. (EC50/MS10 EC50) (hOT7T175 [3]) |
| --- | --- | --- | --- |
| CNC(=N)NCCC[C@H](NC(=O)[C@H](CC(C)C)NC(=O)NNC(=O)[C@H](Cc1ccccc1)NC(=O)[C@H](CO)NC(=O)[C@H](CC(N)=O)NC(=O)[C@@H](Cc1c[nH]c2ccccc12)NC(=O)[C@@H](CC(N)=O)NC(=O)[C@H](N)Cc1ccc(O)cc1)C(=O)N[C@@H](Cc1ccccc1)C(N)=O [Compound No. 238, D-Tyr-D-Asn-D-Trp-Asn-Ser-Phe-AzaGly-Leu-Arg(Me)-Phe-NH2] | 1 |  |  |
| H-YNWNSFALRF-NH2 [Compound No. 50] | 30 |  |  |
| CC(C)C[C@H](NC(=O)CNC(=O)[C@H](Cc1ccccc1)NC(=O)[C@H](CO)NC(=O)[C@H](CC(N)=O)NC(=O)[C@H](Cc1c[nH]c2ccccc12)NC(=O)[C@H](CC(N)=O)NC(=O)[C@H](Cc1ccc(O)cc1)NC(=O)OCC1c2ccccc2-c2ccccc21)C(=O)N[C@@H](CCCNC(=N)N)C(=O)N[C@@H](Cc1ccccc1)C(N)=O [Compound No. 31] | 2 |  |  |
| 4-Aminomethylbenzoyl-Phe-AzaGly-Leu-Arg(Me)-Trp-NH2 [Compound No. 473] |  | 3 | 4.2 |
| 3-Phenylpropionyl-Ala-Ser-Phe-AzaGly-Leu-Arg(Me)-Trp-NH2 [Compound No. 500] |  | 1 | 3.2 |
| Pyridazine-4-carbonyl-Phe-AzaGly-Leu-Arg(Me)-Trp-NH2 [Compound No. 480] |  | 1 | 8.3 |
| D-Tyr-Pya(4)-Ala-Ser-Phe-AzaGly-Leu-Arg(Me)-Trp-NH2 [Compound No. 502] |  | 10 | 1.4 |
| 2-(Indol-3-yl)ethylcarbamoyl-Phe-AzaGly-Leu-Arg(Me)-Trp-NH2 [Compound No. 369] |  | 2 | 4.8 |
| Cyclopropanecarbonyl-Phe-AzaGly-Leu-Arg(Me)-Trp-NH2 [Compound No. 447] |  | 5 | 1.4 |
| Isobutyryl-Phe-AzaGly-Leu-Arg(Me)-Trp-NH2 [Compound No. 438] |  | 3 | 3.0 |
| CC(C)C[C@H](NC(=O)CNC(=O)[C@H](Cc1ccccc1)NC(=O)[C@H](CO)NC(=O)[C@H](CC(N)=O)NC(=O)[C@H](Cc1c[nH]c2ccccc12)NC(=O)[C@H](CC(N)=O)NC[C@@H](N)Cc1ccc(O)cc1)C(=O)N[C@@H](CCCNC(=N)N)C(=O)N[C@@H](Cc1ccccc1)C(N)=O [Compound No. 294] (H-[X1]WNSFGLRF-NH2) |  | 10 | 0.7 |
| Pyrimidine-2-carbonyl-Phe-AzaGly-Leu-Arg(Me)-Trp-NH2 [Compound No. 479] |  | 5 | 2.6 |
| D-Tyr-Pya(4)-Asn-Ser-Phe-AzaGly-Leu-Arg(Me)-Phe-NH2 [Compound No. 490] |  | 3 | 6.2 |
| CNC(=N)NCCC[C@H](NC(=O)[C@H](CC(C)C)NC(=O)NNC(=O)[C@H](Cc1ccccc1)NC(=O)[C@H](CO)NC(=O)[C@H](CC(N)=O)NC(=O)C(c1ccccc1)c1ccccc1)C(=O)N[C@@H](Cc1ccccc1)C(N)=O [Compound No. 268, Diphenylacetyl-Asn-Ser-Phe-AzaGly-Leu-Arg(Me)-Phe-NH2] (Diphenylacetyl-NSF[azaGly]L[Arg(Me)]F-NH2) |  | 1 | 4.5 |
| D-Tyr-D-Pya(4)-Asn-Trp-Phe-AzaGly-Leu-Arg(Me)-Trp-NH2 [Compound No. 491] |  | 7 | 1.0 |
| CNC(=N)NCCC[C@H](NC(=O)[C@H](CC(C)C)NC(=O)NNC(=O)[C@H](Cc1ccccc1)NC(=O)[C@H](CO)NC(=O)[C@H](CC(N)=O)NC(=O)Cc1c[nH]c2ccccc12)C(=O)N[C@@H](Cc1ccccc1)C(N)=O [Compound No. 266, Indol-3-acetyl-Asn-Ser-Phe-AzaGly-Leu-Arg(Me)-Phe-NH2] (X2-NSF[azaGly]L[Arg(Me)]F-NH2) |  | 2 | 5.4 |
| Pyrrole-2-carbonyl-Phe-AzaGly-Leu-Arg(Me)-Trp-NH2 [Compound No. 455] |  | 5 | 4.1 |

Reference: patent US8778871B2 (Takeda Pharmaceutical Company Limited, priority 2004, dated 2014)
